Starred links: 1 amine or outer side, 2 acyl side, 3 side chain; linkers in the order of their positions; H or OH if unused. Non-standard residues stand in square brackets, D forms with d. Residues, ends and D or L forms follow the SMILES beside them. *: point of attachment. Dolaproine = CO[C@@H]([C@@H]1CCCN1)[C@@H](C)C(=O)O; X6 = O=C([C@H](N[*:1])[C@@H]1Cc2ccccc21)[*:2]; X5 = O=C([C@@H](N[*:1])C1(c2ccccc2)CC1)[*:2]; X2 = O=C([C@H](N[*:1])C1(c2ccccc2)CC1)[*:2]; Dil = CC[C@H](C)[C@H](NC)[C@@H](CC(=O)O)OC; NMeαMePro = CN1CCC[C@@]1(C)C(=O)*; N(CH2CH2)2NH = C1CN(*)CCN1; X1 = CN1CCC[C@]1(C)C(=O)*; NMeAib = CNC(C)(C)C(=O)O; X4 = CN(C)C(C)(C)C(=O)*; NH(propargyl) = C#CCN*; Aib = CC(C)(N)C(=O)O; X3 = C1C2CC1(N*)C2
Key:
Assay type in all cases: cell-based
[1] = test system: MDA-MB-361-DYT2 (breast cancer); experiment: In vitro cell assay, MTS cell viability 96 hours after treatment; conditions: read-out: MDA-MB-361-DYT2 GMEAN IC50, MDA-MB-361-DYT2 cells; geometric mean; cytotoxic peptides
Method in brief: (§1)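 Antibody-drug conjugates or free (unconjugated) compounds were applied in duplicate at 10 concentrations from 3-fold serial dilutions. Viability was measured by MTS assay and expressed as percentage of untreated control.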

[2] = test system: N87 (gastric cancer); experiment: as above; conditions: read-out: N87 GMEAN IC50, N87 cells; geometric mean; cytotoxic peptides
Method in brief: as §1

[3] = test system: BT474 (breast cancer); experiment: as above; conditions: Homo sapiens, BT-474, BT474 cells; geometric mean; cytotoxic peptides; read-out: BT474 GMEAN IC50
Method in brief: as §1

[4] = test system: MDA-MB-468 (breast cancer); experiment: In vitro cytotoxicity assay with anti-Notch ADCs (MTS); conditions: average of 2-4 repeats where ± S.E.M. is given
Description: (§2) The effects of anti-Notch ADCs were assessed on 1) cell lines endogenously expressing Notch protein: HCC2429 (lung cancer), OVCAR3 (ovarian cancer) and MDA-MB-468 (breast cancer), 2) cell lines engineered to over-express Notch protein: MDA-MB-468/hNotch and U2OS/hNotch, and 3) a negative control cell line (SW900) using an MTS cellular viability indicator (Promega, Madison, Wis.). These cell lines were cultured with increasing concentrations of anti-Notch ADCs comprising humanized anti-Notch antibodies, hu28 and hu75, and rat-human chimeric anti-Notch antibodies, ch28 and ch75, conjugated to various linker-payload combinations of the present invention. As a specificity control for the anti-Notch-ADCs, non-targeted control-ADCs (huNeg8.8-ADCs or ch2H6-ADCs) were also tested on the same cell lines. After four days, viability of each culture was assessed. IC50 values were calculated by logistic non-linear regression and presented as ng Ab/mL. The drug antibody ratio (DAR) is also provided.

[5] = test system: HCC2429 (lung cancer); experiment: as above; conditions: average of 2-4 repeats where ± S.E.M. is given
Description: as §2

[6] = test system: OVCAR3 (ovarian cancer); experiment: as above; conditions: average of 2-4 repeats where ± S.E.M. is given
Description: as §2

[7] = test system: U2OS/hNotch; experiment: as above; conditions: average of 2-4 repeats where ± S.E.M. is given
Description: as §2

Row | Molecule | IC50 [1] | IC50 [2] | IC50 [3] | IC50 (ng Ab/mL) ± S.E.M. [4] | IC50 (ng Ab/mL) ± S.E.M. [5] | IC50 (ng Ab/mL) ± S.E.M. [6] | IC50 (ng Ab/mL) ± S.E.M. [7]
1 | CC[C@H](C)[C@@H]([C@@H](CC(=O)N1CCC[C@H]1[C@H](OC)[C@@H](C)C(=O)NC12CC(C1)C2)OC)N(C)C(=O)[C@@H](NC(=O)C(C)(C)N)C(C)C [#221] (H-[Aib]V[Dil][Dolaproine]-X3) | 65.4 nM | 87.9 nM | 32.4 nM | – | – | – | –
2 | CC[C@H](C)[C@@H]([C@@H](CC(=O)N1CCC[C@H]1[C@H](OC)[C@@H](C)C(=O)N[C@H](C(=O)OC)C1(c2ccccc2)CC1)OC)N(C)C(=O)[C@@H](NC(=O)C(C)(C)N)C(C)C [#223] (H-[Aib]V[Dil][Dolaproine][X5]-OMe) | 10.9 nM | 13 nM | 7.59 nM | – | – | – | –
3 | CC[C@H](C)[C@@H]([C@@H](CC(=O)N1CCC[C@H]1[C@H](OC)[C@@H](C)C(=O)N[C@@H](C(=O)OC)[C@@H]1Cc2ccccc21)OC)N(C)C(=O)[C@@H](NC(=O)C(C)(C)N)C(C)C [#224] (H-[Aib]V[Dil][Dolaproine][X6]-OMe) | 0.998 nM | 1.56 nM | 0.383 nM | – | – | – | –
4 | CC[C@H](C)[C@@H]([C@@H](CC(=O)N1CCC[C@H]1[C@H](OC)[C@@H](C)C(=O)N[C@@H](Cc1ccccc1)C(=O)OC)OC)N(C)C(=O)[C@@H](NC(=O)C(C)(C)NC)C(C)C [#226] (H-[NMeAib]V[Dil][Dolaproine]F-OMe) | 0.106 nM | 0.478 nM | 0.118 nM | – | – | – | –
5 | CC[C@H](C)[C@@H]([C@@H](CC(=O)N1CCC[C@H]1[C@H](OC)[C@@H](C)C(=O)N[C@@H](Cc1ccccc1)C(=O)O)OC)N(C)C(=O)[C@@H](NC(=O)C(C)(C)N(C)C)C(C)C [#229] (X4-V[Dil][Dolaproine]F-OH) | 10.2 nM | 16.6 nM | 18.4 nM | – | – | – | –
6 | CC[C@H](C)[C@@H]([C@@H](CC(=O)N1CCC[C@H]1[C@H](OC)[C@@H](C)C(=O)N[C@@H](C(=O)O)C1(c2ccccc2)CC1)OC)N(C)C(=O)[C@@H](NC(=O)C(C)(C)N)C(C)C [#230] (H-[Aib]V[Dil][Dolaproine][X2]-OH) | 70.2 nM | 89.1 nM | ≥ 100 nM | – | – | – | –
7 | CC[C@H](C)[C@@H]([C@@H](CC(=O)N1CCC[C@H]1[C@H](OC)[C@@H](C)C(=O)N[C@@H](Cc1ccccc1)C(=O)OC)OC)N(C)C(=O)[C@@H](NC(=O)[C@@]1(C)CCCN1C)C(C)C [#236] (X1-V[Dil][Dolaproine]F-OMe) | 0.01 nM | 0.023 nM | 0.02 nM | – | – | – | –
8 | C#CCNC(=O)[C@H](Cc1ccccc1)NC(=O)[C@H](C)[C@@H](OC)[C@@H]1CCCN1C(=O)C[C@@H](OC)[C@H]([C@@H](C)CC)N(C)C(=O)[C@@H](NC(=O)C(C)(C)NC)C(C)C [#241] (H-[NMeAib]V[Dil][Dolaproine]F-{NH(propargyl)}) | 0.494 nM | 0.388 nM | 0.364 nM | – | – | – | –
9 | CC[C@H](C)[C@@H]([C@@H](CC(=O)N1CCC[C@H]1[C@H](OC)[C@@H](C)C(=O)N[C@@H](Cc1c[nH]cn1)C(=O)OC)OC)N(C)C(=O)[C@@H](NC(=O)C(C)(C)NC)C(C)C [#242] (H-[NMeAib]V[Dil][Dolaproine]H-OMe) | 34.5 nM | 41.3 nM | 32.3 nM | – | – | – | –
10 | CC[C@H](C)[C@@H]([C@@H](CC(=O)N1CCC[C@H]1[C@H](OC)[C@@H](C)C(=O)N[C@H](Cc1ccccc1)C(=O)O)OC)N(C)C(=O)[C@@H](NC(=O)C(C)(C)NC)C(C)C [#244] (H-[NMeAib]V[Dil][Dolaproine][dF]-OH) | ≥ 100 nM | ≥ 100 nM | 73.1 nM | – | – | – | –
11 | CC[C@H](C)[C@@H]([C@@H](CC(=O)N1CCC[C@H]1[C@H](OC)[C@@H](C)C(=O)N[C@@H](Cc1ccccc1)C(=O)N1CCNCC1)OC)N(C)C(=O)[C@@H](NC(=O)[C@]1(C)CCCN1C)C(C)C [#245] (NMeαMePro-V[Dil][Dolaproine]F-{N(CH2CH2)2NH}) | 31.9 nM | 33 nM | 11.8 nM | – | – | – | –
12 | CC[C@H](C)[C@@H]([C@@H](CC(=O)N1CCC[C@H]1[C@H](OC)[C@@H](C)C(=O)N[C@H](CN)Cc1ccccc1)OC)N(C)C(=O)[C@@H](NC(=O)[C@]1(C)CCCN1C)C(C)C [#246] | 5.43 nM | 10.8 nM | 3.16 nM | – | – | – | –
13 | ch75-MalPeg6C2-8261 (conjugate) VH: QVKLLQSGAALVKPGASVKMSCKASGYAFTDYWVTWVKQSHGKSLEWIGEISPNSGGTNFNEKFKGKATLTVDKSTSTAYMELSRLTSEDSAIYYCTRGEIRYNWFAYWGQGTLVTVSS VL: DIQMTQSPSSLSASVGDRVTITCKASQNVGNNIAWYQQKPGKAPKLLIYYASNRYTGVPSRFSGSGYGTDFTLTISSLQPEDFATYYCQRLYNSPFTFGGGTKVEIK | – | – | – | 4255 ± 2375 ng Ab/mL | – | – | –
14 | ch75-me0131 (conjugate) VH: QVKLLQSGAALVKPGASVKMSCKASGYAFTDYWVTWVKQSHGKSLEWIGEISPNSGGTNFNEKFKGKATLTVDKSTSTAYMELSRLTSEDSAIYYCTRGEIRYNWFAYWGQGTLVTVSS VL: DIQMTQSPSSLSASVGDRVTITCKASQNVGNNIAWYQQKPGKAPKLLIYYASNRYTGVPSRFSGSGYGTDFTLTISSLQPEDFATYYCQRLYNSPFTFGGGTKVEIK | – | – | – | 259 ng Ab/mL | – | – | –
15 | ch75-mc3377 (conjugate) VH: QVKLLQSGAALVKPGASVKMSCKASGYAFTDYWVTWVKQSHGKSLEWIGEISPNSGGTNFNEKFKGKATLTVDKSTSTAYMELSRLTSEDSAIYYCTRGEIRYNWFAYWGQGTLVTVSS VL: DIQMTQSPSSLSASVGDRVTITCKASQNVGNNIAWYQQKPGKAPKLLIYYASNRYTGVPSRFSGSGYGTDFTLTISSLQPEDFATYYCQRLYNSPFTFGGGTKVEIK | – | – | – | 560 ng Ab/mL | – | – | –
16 | ch28-mc0131 (conjugate) VH: EVQLVESGGGLVQPGRSLTLSCVASGFTFRDYGMTWIRQAPGKGLTWVAYISSGSNYIYYAEAVKGRFTISRDNAKNTLYLQMTSLRSEDTALYFCTRRGPFVLDAWGQGASVTVSS VL: DIQMTQSPSFLSASVGDRVTINCKASQSINRYLHWFQQKLGEAPKLLIYNANGLQTGIPSRFSGSGSGTDFTLTISSLQSEDVATYFCLQHNTWPDTFGAGTKLELK | – | – | – | 35 ± 18.5 ng Ab/mL | 251 ± 77.5 ng Ab/mL | 6 ± 1.0 ng Ab/mL | 3 ± 0.5 ng Ab/mL
17 | ch28-MalPeg6C2-8261 (conjugate) VH: EVQLVESGGGLVQPGRSLTLSCVASGFTFRDYGMTWIRQAPGKGLTWVAYISSGSNYIYYAEAVKGRFTISRDNAKNTLYLQMTSLRSEDTALYFCTRRGPFVLDAWGQGASVTVSS VL: DIQMTQSPSFLSASVGDRVTINCKASQSINRYLHWFQQKLGEAPKLLIYNANGLQTGIPSRFSGSGSGTDFTLTISSLQSEDVATYFCLQHNTWPDTFGAGTKLELK | – | – | – | 83 ± 35.5 ng Ab/mL | – | – | –
18 | ch28-MalPeg6C2-0131 (conjugate) VH: EVQLVESGGGLVQPGRSLTLSCVASGFTFRDYGMTWIRQAPGKGLTWVAYISSGSNYIYYAEAVKGRFTISRDNAKNTLYLQMTSLRSEDTALYFCTRRGPFVLDAWGQGASVTVSS VL: DIQMTQSPSFLSASVGDRVTINCKASQSINRYLHWFQQKLGEAPKLLIYNANGLQTGIPSRFSGSGSGTDFTLTISSLQSEDVATYFCLQHNTWPDTFGAGTKLELK | – | – | – | 10 ± 1.0 ng Ab/mL | – | 10 ± 2.0 ng Ab/mL | 3 ± 0.85 ng Ab/mL
19 | ch28-mc8261 (conjugate) VH: EVQLVESGGGLVQPGRSLTLSCVASGFTFRDYGMTWIRQAPGKGLTWVAYISSGSNYIYYAEAVKGRFTISRDNAKNTLYLQMTSLRSEDTALYFCTRRGPFVLDAWGQGASVTVSS VL: DIQMTQSPSFLSASVGDRVTINCKASQSINRYLHWFQQKLGEAPKLLIYNANGLQTGIPSRFSGSGSGTDFTLTISSLQSEDVATYFCLQHNTWPDTFGAGTKLELK | – | – | – | 12147 ± 4806.4 ng Ab/mL | – | – | –
20 | ch28-mc3377 (conjugate) VH: EVQLVESGGGLVQPGRSLTLSCVASGFTFRDYGMTWIRQAPGKGLTWVAYISSGSNYIYYAEAVKGRFTISRDNAKNTLYLQMTSLRSEDTALYFCTRRGPFVLDAWGQGASVTVSS VL: DIQMTQSPSFLSASVGDRVTINCKASQSINRYLHWFQQKLGEAPKLLIYNANGLQTGIPSRFSGSGSGTDFTLTISSLQSEDVATYFCLQHNTWPDTFGAGTKLELK | – | – | – | 27 ± 11.3 ng Ab/mL | – | 14 ± 5.5 ng Ab/mL | 3 ± 0.5 ng Ab/mL

From US8828401B2, “Cytotoxic peptides and antibody drug conjugates thereof” (Pfizer Inc., priority 2011, dated 2014)
